Measured values published in publication PMC12678798, “Discovery of an allosteric binding site for anthraquinones at the human P2X4 receptor” (Nature Communications, 2025).

Key:
[1] = target: T1, human P2X4-E307T receptor mutant (Homo sapiens, UniProt Q99571, E307T); assay: ATP-induced calcium influx assay, P2X4-E307T mutant in 1321N1 astrocytoma cells; type: cell-based; conditions: P2X4-E307T
T1 construct: expressed in transfected cells
T1 sequence (Q99571 1-388 E307T): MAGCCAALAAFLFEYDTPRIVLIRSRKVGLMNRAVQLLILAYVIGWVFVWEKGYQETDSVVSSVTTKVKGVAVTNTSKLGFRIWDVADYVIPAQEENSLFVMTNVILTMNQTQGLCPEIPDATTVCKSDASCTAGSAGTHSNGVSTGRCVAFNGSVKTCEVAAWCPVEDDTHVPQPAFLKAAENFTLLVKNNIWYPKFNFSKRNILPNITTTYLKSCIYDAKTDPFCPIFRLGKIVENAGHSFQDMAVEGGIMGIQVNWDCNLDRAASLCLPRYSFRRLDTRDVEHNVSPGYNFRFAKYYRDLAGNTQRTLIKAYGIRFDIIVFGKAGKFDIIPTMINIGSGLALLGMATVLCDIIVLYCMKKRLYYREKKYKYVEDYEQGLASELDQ

[2] = target: T2, chimeric P2X4(P2X2) receptor c10^R301-Q308 (Homo sapiens, UniProt Q99571, A304N/D302K/DEL301-301/E307T/L303I/N306T/Q308T); assay: ATP-induced calcium influx assay, chimeric receptor c10 in 1321N1 astrocytoma cells; type: cell-based
T2 construct: expressed in transfected cells; gene synthesis (Geneart), pLVX-IRES-mCherry (bicistronic, mCherry not fused)
T2 sequence (Q99571 with tags, fused parts or gaps DEL301-301/D302K/L303I/A304N/N306T/E307T/Q308T): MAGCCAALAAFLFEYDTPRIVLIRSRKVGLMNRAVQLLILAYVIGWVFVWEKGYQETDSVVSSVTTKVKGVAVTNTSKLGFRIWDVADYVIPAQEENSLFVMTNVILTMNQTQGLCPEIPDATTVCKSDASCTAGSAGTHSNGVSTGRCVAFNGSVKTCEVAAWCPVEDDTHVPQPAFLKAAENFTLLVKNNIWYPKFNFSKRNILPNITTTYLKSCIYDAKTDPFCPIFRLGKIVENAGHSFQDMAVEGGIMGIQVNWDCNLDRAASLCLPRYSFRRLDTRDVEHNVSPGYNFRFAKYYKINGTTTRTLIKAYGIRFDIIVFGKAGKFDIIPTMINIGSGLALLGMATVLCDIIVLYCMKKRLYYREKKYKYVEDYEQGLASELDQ

[3] = target: T3, wild-type (wt) human (h) P2X4 receptor (Homo sapiens, UniProt Q99571); assay: Two-electrode voltage clamp (TEVC), wt hP2X4 in Xenopus laevis oocytes; type: cell-based; conditions: TEVC at -60 mV
T3 construct: host or cells: Xenopus laevis oocytes injected with cRNA (pNKS2 vector)
Protocol: Xenopus laevis frogs were from Nasco International (Fort Atkinson, WI, USA) and kept at the Core Facility Animal Models (CAM) of the BMC of LMU Munich, Germany (Az: 4.3.2–5682/LMU/BMC/CAM) in accordance with the EU Animal Welfare Act. […] Fifty nanoliters of cRNA (0.5 µg/µL) were injected using a Nanoject II injector (Science Products, Drummond, USA) and oocytes were kept in ND96 (96 mM NaCl, 2 mM KCl, 1 mM MgCl2, 1 mM CaCl2, 5 mM HEPES, pH 7.4–7.5) supplemented with 5 μg/mL gentamicin at 16 °C.
cDNA encoding human P2X4 receptor (NM_002560.3) was obtained from BioCat GmbH (Heidelberg, Germany) and cloned into the pNKS2 vector[87] using Gibson Assembly (E2621L, New England Biolabs, USA) according to the manufacturer’s instructions. Point mutations were introduced by site-directed mutagenesis using KLD Enzyme Mix (M0554S, New England Biolabs, USA). All constructs were verified by full-length cDNA sequencing (Eurofins Genomics, Germany). Plasmids were linearized with NotI-HF (R3189S, New England Biolabs, USA) and purified using the MinElute Reaction Cleanup Kit (Qiagen, Hilden, Germany). […]
Statistical analysis was performed with GraphPad Prism version 10 software, and data are presented as means ± SEM. Data were assessed for normality using the Shapiro–Wilk test and for homogeneity of variances using Levene’s test. […]

[4] = target: T4, hP2X4-E307T receptor mutant (Homo sapiens, UniProt Q99571, E307T); assay: Two-electrode voltage clamp (TEVC), P2X4-E307T in Xenopus laevis oocytes; type: cell-based; conditions: TEVC at -60 mV, Xenopus oocytes, P2X4-E307T
T4 construct: host or cells: Xenopus laevis oocytes injected with cRNA (pNKS2 vector)
T4 sequence (Q99571 1-388 E307T): T1 sequence (Q99571 1-388 E307T)

[5] = system: chimeric receptor c1^V71-I83; set-up: method as in PMID 36328074; conditions: cited from earlier work
[6] = system: zebrafish P2X4 receptor; set-up: method as in PMID 19641588, PMID 12127972; conditions: cited from earlier work
[7] = target: chimeric P2X4(P2X2) receptor c8^R265-L269 (Homo sapiens, UniProt Q99571, A266P/L269E/R265L); assay: cell-based
Sequence of chimeric P2X4(P2X2) receptor c8^R265-L269 (Q99571 whole entry R265L/A266P/L269E): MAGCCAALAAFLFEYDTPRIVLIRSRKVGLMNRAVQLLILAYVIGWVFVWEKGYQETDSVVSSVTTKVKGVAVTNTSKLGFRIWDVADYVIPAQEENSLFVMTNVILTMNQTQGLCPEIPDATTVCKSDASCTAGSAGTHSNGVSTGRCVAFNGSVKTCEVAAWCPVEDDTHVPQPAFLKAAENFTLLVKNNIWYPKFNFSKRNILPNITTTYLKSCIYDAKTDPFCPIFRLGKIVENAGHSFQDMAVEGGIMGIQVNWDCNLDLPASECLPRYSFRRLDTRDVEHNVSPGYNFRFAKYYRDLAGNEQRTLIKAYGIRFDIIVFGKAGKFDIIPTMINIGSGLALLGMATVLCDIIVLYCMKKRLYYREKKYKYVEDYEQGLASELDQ

T3 sequence (Q99571 whole entry): as the sequence (Q99571 whole entry R265L/A266P/L269E) above, with L265R, P266A, E269L counted along it

With `Nc1ncnc2c1ncn2[C@@H]1O[C@H](COP(=O)(O)OP(=O)(O)OP(=O)(O)O)[C@@H](O)[C@H]1O` [ATP, Adenosine 5′-triphosphate] the EC50 [1] was 921 nM, the EC50 [2] was 912 nM and the “EC50 of ATP at c10 higher than at wt P2X4” value ([2]; calcium influx) was 2.4 fold. For the same molecule, the EC50 [3] was ~10000 nM, the EC50 [4] was ~10000 nM and the “Maximal effect of ATP compared to that of the human wt P2X4 receptor” value [5] was 4%. The “Potency of ATP at the zebrafish P2X4 receptor lower than at the human P2X4 receptor” value [6] was “about 700 fold” and the EC50 [7] was 389 nM.
